Test results published in EP2552195B1, “ANTIMICROBIAL OIL-IN-WATER EMULSION” (B. Braun Melsungen AG, priority 2010, dated 2011).

Legend:
Format in all cases: cell-based
[1] = test system: Enterococcus hirae (ATCC 10541); experiment: Inactivator test per prEN13727 (2008) and prEN13624 (2010); conditions: n = 4
Excerpt: (§1) Es wurden Öl in Wasser Emulsionen hergestellt, die unterschiedliche Mengen X des antimikrobiellen Wirkstoffs Polyhexamethylenbiguanidiniumhydrochlorid (PHMB) [erfindungsgemäß] und Chlorhexidin (CHX) [Vergleich] aufweisen. Die Öl in Wasser Emulsionen sind in Tabelle 7 wiedergegeben. Tabelle 7
(§2) Um die Wirksamkeit der antimikrobiellen Wirkstoffe in einem bestimmten Konzentrationsbereich in einer Öl in Wasser Emulsion zu testen wurde ein Inaktivatortest nach prEN13727 (2008) und prEN13624 (2010) gegenüber Enterococcus hirae (ATCC 10541), Escherichia coli (ATCC 11229), Pseudomonas aeruginosa (ATCC 15442) und Staphylococcus aureus (ATCC 6538) für n = 4 durchgeführt. Die Messergebnisse sind in Tabelle 8 wiedergegeben. Tabelle 8

[2] = test system: Escherichia coli (ATCC 11229); experiment: as above; conditions: n = 4
Excerpt: as §1, §2

[3] = test system: Pseudomonas aeruginosa (ATCC 15442); experiment: as above; conditions: n = 4
Excerpt: as §1, §2

[4] = test system: Staphylococcus aureus (ATCC 6538); experiment: as above; conditions: n = 4
Excerpt: as §1, §2

Prüfmikroorganismen = experiment: Inactivator test, overall statement for all four test organisms; conditions: concentration range 0,02 - 0,05 Gew.-% in o/w emulsion
Excerpt: as §2

[5] = 0,02% active in o/w emulsion (Tabelle 7)
[6] = 0,03% active in o/w emulsion (Tabelle 7)
[7] = 0,04% active in o/w emulsion (Tabelle 7)
[8] = 0,05% active in o/w emulsion (Tabelle 7)

In the case of N=C(NCCCCCCNC(=N)NC(=N)Nc1ccc(Cl)cc1)NC(=N)Nc1ccc(Cl)cc1 [CHX, Chlorhexidin], the “Kolonien-bildende Einheiten E. hirae” value [1, 5] is reported as 104 ± 4, the “Kolonien-bildende Einheiten E. hirae” value [1, 6] is reported as 102 ± 5 and the “Kolonien-bildende Einheiten E. hirae” value [1, 7] is reported as 106 ± 3. The “Kolonien-bildende Einheiten E. hirae” value [1, 8] was 106 ± 3, the “Kolonien-bildende Einheiten E. coli” value [2, 5] was 132 ± 1 and the “Kolonien-bildende Einheiten E. coli” value [2, 6] was 131 ± 5. For the same compound, the “Kolonien-bildende Einheiten E. coli” value [2, 7] was 130 ± 9, the “Kolonien-bildende Einheiten E. coli” value [2, 8] was 130 ± 9 and the “Kolonien-bildende Einheiten P. aeruginosa” value [3, 5] was 316 ± 50. For the same compound, the “Kolonien-bildende Einheiten P. aeruginosa” value [3, 6] was 315 ± 43, the “Kolonien-bildende Einheiten P. aeruginosa” value [3, 7] was 355 ± 10 and the “Kolonien-bildende Einheiten P. aeruginosa” value [3, 8] was 339 ± 37. The “Kolonien-bildende Einheiten S. aureus” value [4, 5] was 149 ± 5, the “Kolonien-bildende Einheiten S. aureus” value [4, 6] was 156 ± 13 and the “Kolonien-bildende Einheiten S. aureus” value [4, 7] was 160 ± 8. For the same compound, the “Kolonien-bildende Einheiten S. aureus” value [4, 8] was 159 ± 10 and the “mikrobiozide Wirkung in der Öl in Wasser Emulsion” value (Prüfmikroorganismen) was “inaktiviert vollständig”.
